Source: BindingDB's records for doi:10.1021/acs.jmedchem.6b00275 (University of Washington, 2016)

Tests used:
[1] = biological target: Dihydroorotate dehydrogenase (quinone), mitochondrial (Homo sapiens, UniProt Q02127); experiment: Inhibition of N-terminal His6-tagged human DHODH expressed in Escherichia coli BL21 using L-DHO as substrate and CoQ as co-substrate by DCIP dye based spectrophotometric assay
[2] = biological target: T1, Cytochrome P450 1A2 (Homo sapiens, UniProt P05177); experiment: Inhibition of CYP1A2 in human liver microsomes using isoform-specific probe substrate in presence of NADPH-generating system by LC-MS analysis
T1 sequence (P05177 whole entry): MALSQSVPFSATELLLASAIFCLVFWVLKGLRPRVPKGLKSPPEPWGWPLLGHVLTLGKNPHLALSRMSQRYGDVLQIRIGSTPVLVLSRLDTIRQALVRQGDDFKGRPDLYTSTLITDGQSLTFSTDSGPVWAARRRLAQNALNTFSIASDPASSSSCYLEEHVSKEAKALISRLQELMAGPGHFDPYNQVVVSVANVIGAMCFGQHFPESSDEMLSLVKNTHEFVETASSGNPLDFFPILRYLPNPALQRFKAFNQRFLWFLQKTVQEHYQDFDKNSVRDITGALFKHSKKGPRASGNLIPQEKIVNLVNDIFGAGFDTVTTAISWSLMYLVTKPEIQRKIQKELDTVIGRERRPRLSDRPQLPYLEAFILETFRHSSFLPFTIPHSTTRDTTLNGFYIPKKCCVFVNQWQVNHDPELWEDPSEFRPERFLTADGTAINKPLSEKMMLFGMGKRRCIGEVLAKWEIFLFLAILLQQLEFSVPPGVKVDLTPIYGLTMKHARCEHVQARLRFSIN

[3] = biological target: Cytochrome P450 3A4 (Homo sapiens, UniProt P08684); experiment: Inhibition of CYP3A4 in human liver microsomes using isoform-specific probe substrates in presence of NADPH-generating system by LC-MS analysis
Cytochrome P450 3A4, sequence (P08684 whole entry, canonical isoform): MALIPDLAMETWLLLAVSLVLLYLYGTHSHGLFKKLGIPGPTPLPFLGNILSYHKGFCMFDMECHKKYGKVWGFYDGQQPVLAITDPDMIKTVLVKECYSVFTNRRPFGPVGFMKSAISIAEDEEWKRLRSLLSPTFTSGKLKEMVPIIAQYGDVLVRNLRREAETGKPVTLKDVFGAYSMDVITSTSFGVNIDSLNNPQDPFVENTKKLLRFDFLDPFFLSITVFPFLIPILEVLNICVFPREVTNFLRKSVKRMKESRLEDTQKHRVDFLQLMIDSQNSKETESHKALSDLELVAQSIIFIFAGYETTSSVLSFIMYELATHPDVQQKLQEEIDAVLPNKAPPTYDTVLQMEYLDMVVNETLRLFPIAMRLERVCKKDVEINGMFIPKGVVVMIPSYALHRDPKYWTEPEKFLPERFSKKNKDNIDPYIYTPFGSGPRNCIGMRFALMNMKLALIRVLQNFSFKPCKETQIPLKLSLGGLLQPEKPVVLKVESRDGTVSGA

[4] = biological target: Dihydroorotate dehydrogenase (quinone), mitochondrial (Rattus norvegicus, UniProt Q63707); experiment: Inhibition of N-terminal His6-tagged rat DHODH expressed in Escherichia coli BL21 expressed in Escherichia coli BL21 using L-DHO as substrate and CoQ as co-substrate by DCIP dye based spectrophotometric assay
Dihydroorotate dehydrogenase (quinone), mitochondrial (Rattus norvegicus, UniProt Q63707), sequence (Q63707 whole entry, canonical isoform): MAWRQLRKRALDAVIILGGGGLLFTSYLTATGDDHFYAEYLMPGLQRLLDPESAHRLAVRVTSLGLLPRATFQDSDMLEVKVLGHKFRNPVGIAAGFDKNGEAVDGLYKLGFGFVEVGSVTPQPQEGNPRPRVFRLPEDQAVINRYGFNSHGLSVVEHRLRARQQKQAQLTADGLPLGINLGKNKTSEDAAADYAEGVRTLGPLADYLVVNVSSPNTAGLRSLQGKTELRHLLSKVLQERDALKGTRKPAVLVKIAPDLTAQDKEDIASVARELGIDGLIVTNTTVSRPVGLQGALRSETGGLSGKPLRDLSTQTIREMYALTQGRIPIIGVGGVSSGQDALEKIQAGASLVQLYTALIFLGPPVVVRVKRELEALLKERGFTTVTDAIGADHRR

[5] = biological target: T2, Cytochrome P450 2B6 (Homo sapiens, UniProt P20813); experiment: Inhibition of CYP2B6 in human liver microsomes using isoform-specific probe substrates in presence of NADPH-generating system by LC-MS analysis
T2 sequence (P20813 whole entry): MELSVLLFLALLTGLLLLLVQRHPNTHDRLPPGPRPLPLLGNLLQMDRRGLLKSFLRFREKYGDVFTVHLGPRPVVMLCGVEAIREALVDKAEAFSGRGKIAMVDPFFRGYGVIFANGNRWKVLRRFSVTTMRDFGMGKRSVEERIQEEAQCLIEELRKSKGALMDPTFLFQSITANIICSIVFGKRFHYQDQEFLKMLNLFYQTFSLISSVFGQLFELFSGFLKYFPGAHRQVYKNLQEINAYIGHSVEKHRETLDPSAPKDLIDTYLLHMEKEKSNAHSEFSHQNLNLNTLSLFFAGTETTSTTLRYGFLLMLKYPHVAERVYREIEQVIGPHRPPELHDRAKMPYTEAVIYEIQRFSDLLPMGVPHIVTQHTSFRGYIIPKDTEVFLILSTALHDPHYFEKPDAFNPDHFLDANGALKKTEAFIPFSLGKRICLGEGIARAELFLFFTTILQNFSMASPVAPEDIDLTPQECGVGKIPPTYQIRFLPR

[6] = biological target: Cytochrome P450 2D6 (Homo sapiens, UniProt P10635); experiment: Inhibition of CYP2D6 in human liver microsomes using isoform-specific probe substrates in presence of NADPH-generating system by LC-MS analysis
Cytochrome P450 2D6, sequence (P10635 whole entry, canonical isoform): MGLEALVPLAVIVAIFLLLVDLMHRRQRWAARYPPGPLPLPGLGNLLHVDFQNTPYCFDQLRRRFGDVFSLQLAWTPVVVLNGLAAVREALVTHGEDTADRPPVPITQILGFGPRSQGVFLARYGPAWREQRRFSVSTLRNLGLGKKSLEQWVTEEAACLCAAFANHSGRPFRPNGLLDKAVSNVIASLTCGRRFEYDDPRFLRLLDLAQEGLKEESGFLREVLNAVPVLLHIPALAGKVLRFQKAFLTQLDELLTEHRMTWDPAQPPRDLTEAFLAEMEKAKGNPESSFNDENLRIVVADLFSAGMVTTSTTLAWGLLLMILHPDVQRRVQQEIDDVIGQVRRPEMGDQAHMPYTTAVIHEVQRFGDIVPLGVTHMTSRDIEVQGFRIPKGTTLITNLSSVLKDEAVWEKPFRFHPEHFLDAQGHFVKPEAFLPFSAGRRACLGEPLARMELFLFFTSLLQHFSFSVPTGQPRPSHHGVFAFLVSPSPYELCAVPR

[7] = biological target: Cytochrome P450 2C9 (Homo sapiens, UniProt P11712); experiment: Inhibition of CYP2C9 in human liver microsomes using isoform-specific probe substrates in presence of NADPH-generating system by LC-MS analysis
Cytochrome P450 2C9, sequence (P11712 whole entry, canonical isoform): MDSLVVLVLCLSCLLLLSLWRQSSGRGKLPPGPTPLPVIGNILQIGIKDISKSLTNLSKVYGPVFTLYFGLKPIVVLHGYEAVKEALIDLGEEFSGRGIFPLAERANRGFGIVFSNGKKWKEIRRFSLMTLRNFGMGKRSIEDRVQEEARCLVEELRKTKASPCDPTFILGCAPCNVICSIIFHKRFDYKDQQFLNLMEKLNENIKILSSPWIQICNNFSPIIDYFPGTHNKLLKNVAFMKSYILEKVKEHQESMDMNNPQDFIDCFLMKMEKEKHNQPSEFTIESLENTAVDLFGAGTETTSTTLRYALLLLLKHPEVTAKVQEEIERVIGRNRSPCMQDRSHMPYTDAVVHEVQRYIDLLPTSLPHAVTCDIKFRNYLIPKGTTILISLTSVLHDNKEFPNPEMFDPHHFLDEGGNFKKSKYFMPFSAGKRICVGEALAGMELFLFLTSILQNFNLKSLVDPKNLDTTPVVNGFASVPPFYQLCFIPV

[8] = biological target: T3, Cytochrome P450 2C8 (Homo sapiens, UniProt P10632); experiment: Inhibition of CYP2C8 in human liver microsomes using isoform-specific probe substrates in presence of NADPH-generating system by LC-MS analysis
T3 sequence (P10632 whole entry): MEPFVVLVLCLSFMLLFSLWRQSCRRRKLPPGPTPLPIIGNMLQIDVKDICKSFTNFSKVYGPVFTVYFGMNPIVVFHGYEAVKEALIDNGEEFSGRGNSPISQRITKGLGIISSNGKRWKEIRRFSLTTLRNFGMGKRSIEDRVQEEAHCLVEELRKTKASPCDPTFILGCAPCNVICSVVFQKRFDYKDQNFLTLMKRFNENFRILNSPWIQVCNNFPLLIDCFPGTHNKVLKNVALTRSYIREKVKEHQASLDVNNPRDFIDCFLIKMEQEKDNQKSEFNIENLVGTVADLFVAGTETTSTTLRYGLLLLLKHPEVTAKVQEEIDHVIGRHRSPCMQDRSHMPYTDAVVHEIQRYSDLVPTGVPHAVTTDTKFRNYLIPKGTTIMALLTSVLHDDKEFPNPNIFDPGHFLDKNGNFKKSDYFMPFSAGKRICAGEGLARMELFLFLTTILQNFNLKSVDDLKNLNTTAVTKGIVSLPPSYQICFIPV

[9] = biological target: Cytochrome P450 2C19 (Homo sapiens, UniProt P33261); experiment: Inhibition of CYP2C19 in human liver microsomes using isoform-specific probe substrates in presence of NADPH-generating system by LC-MS analysis
Cytochrome P450 2C19, sequence (P33261 whole entry, canonical isoform): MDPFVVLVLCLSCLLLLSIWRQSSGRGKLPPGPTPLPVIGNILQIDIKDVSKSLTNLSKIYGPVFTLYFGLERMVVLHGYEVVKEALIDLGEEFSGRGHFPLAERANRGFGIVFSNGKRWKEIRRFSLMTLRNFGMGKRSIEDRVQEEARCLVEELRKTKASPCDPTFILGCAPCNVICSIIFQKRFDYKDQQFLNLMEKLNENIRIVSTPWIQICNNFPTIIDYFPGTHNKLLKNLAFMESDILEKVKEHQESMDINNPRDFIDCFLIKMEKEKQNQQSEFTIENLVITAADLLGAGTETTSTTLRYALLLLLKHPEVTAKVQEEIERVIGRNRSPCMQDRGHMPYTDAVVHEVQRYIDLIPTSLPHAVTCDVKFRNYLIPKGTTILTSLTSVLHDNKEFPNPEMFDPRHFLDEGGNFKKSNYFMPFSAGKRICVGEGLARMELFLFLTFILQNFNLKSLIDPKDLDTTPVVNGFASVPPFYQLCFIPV

Dihydroorotate dehydrogenase (quinone), mitochondrial (Homo sapiens, UniProt Q02127), sequence (Q02127 whole entry, canonical isoform): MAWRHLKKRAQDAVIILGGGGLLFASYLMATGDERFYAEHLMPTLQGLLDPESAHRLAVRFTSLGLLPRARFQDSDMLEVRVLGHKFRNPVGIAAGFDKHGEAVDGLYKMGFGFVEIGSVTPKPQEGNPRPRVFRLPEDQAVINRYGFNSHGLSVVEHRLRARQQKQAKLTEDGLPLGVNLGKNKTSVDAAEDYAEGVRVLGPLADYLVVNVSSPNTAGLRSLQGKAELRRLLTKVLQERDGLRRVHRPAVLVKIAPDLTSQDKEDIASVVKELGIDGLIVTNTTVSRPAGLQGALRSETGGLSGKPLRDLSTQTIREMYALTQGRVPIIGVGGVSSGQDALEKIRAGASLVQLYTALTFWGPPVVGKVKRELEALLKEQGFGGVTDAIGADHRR

| Compound | IC50 [1] [µM] | IC50 [2] [µM] | IC50 [3] [µM] | IC50 [4] [µM] | IC50 [5] [µM] | IC50 [6] [µM] | IC50 [7] [µM] | IC50 [8] [µM] | IC50 [9] [µM] |
| --- | --- | --- | --- | --- | --- | --- | --- | --- | --- |
| Cc1cc(NC2CCc3cc(Cl)ccc3C2)n2nc(C(C)(F)F)nc2n1 (stereo unspecified) | > 100 | > 20 | > 20 | > 100 | 18.4 | 20 | 10.2 | > 20 | – |
| Cc1cc(NC2CCc3cc(Br)ccc3C2)n2nc(C(C)(F)F)nc2n1 (stereo unspecified) | > 100 | > 20 | – | > 100 | 17.7 | > 20 | 8.7 | 18.7 | > 20 |
| Cc1cc(N[C@H]2CCc3ccc(Br)cc3C2)n2nc(C(C)(F)F)nc2n1 | – | > 20 | > 20 | > 100 | > 20 | 3.9 | 3.1 | 16.9 | > 20 |
| COc1ccc2c(c1)CC(Nc1cc(C)nc3nc(C(C)(F)F)nn13)CC2 (stereo unspecified) | > 100 | – | – | – | – | – | – | – | – |
| Cc1cc(NC2CCc3ccc(Cl)cc3C2)n2nc(C(F)(F)F)nc2n1 (stereo unspecified) | > 50 | – | – | – | – | – | – | – | – |
